Seven compounds from US20060252827A1, “Therapeutic use of acyglycerols and the nitrogen-and sulphur-containing analogues thereof” (priority 2003, published 2006) can be followed below.

One assay relates to LDL. Description: LDL oxidation by copper, conjugated diene formation (OD 234 nm). The format is biochemical. Particulars: for decrease in the maximum amount of conjugated dienes formed: copper alone 496 nmol per mg of LDL, FIG. 2c; for rate of conjugated diene formation (LDL oxidation rate): copper alone 3, FIG. 2b; for increase in the lag phase: relative to copper alone; for increase in the lag phase / lag phase for conjugated diene formation: FIG. 2a; for lag phase for conjugated diene formation: copper alone 104 minutes. As for the experimental part:
LDL were prepared as described in Lebeau et al. (Lebeau, Furman et al. 2000). The solutions of the test compounds were prepared at 10^−2 M in ethanol and diluted in PBS so that the final concentration ranged from 0.1 to 100 μM with a total ethanol concentration of 1% (V/V).
Before oxidation, EDTA was removed from the LDL preparation by dialysis. The oxidation reaction was then carried out at 30° C. by adding 100 μl of 16.6 μM CuSO4 or 2 mM MPH to 800 μl of LDL (125 μg protein/ml) and 100 μl of a test compound solution. The formation of dienes, the species to be followed, was measured by the optical density at 234 nm in the samples treated with the compounds in the presence or absence of copper (or MPH). Optical density at 234 nm was measured every 10 minutes for 8 hours on a thermostated spectrophotometer (Kontron Uvikon 930). The analyses were carried out in triplicate. A compound was considered to have antioxidant activity when it shifted the lag phase latency relative to the control sample. […] FIG. 2 presents an example of the results obtained with the inventive compounds.

Assay [1] concerns the target T1, hPPARα (Gal4/PPARα chimera) (Homo sapiens, UniProt Q07869).
T1 construct: expressed in transfected cells; host or cells: HepG2
T1 sequence (Q07869 239-466 limits assumed): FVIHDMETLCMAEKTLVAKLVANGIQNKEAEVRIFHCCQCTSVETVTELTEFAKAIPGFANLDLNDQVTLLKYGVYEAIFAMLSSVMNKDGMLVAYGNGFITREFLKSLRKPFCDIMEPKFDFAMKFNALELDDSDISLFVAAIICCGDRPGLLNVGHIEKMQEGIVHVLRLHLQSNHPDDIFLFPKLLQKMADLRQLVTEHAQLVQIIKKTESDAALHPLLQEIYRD
The experiment in a line: Gal4/PPARα transactivation system in HepG2 cells (luciferase). Format: cell-based. Particulars: HepG2, 24 h, PC liposomes, FIG. 3. As for the experimental part:
PPAR activation was tested in vitro in RK13 fibroblast cell lines or in a […] line HepG2 by measuring the transcriptional activity of chimeras composed of the DNA binding domain of the yeast gal4 transcription factor and the ligand binding domain of the different PPARs. The example below is given for HepG2 cells.
HepG2 cells were from ECACC (Porton Down, UK) and were grown in DMEM medium supplemented with 10% (V/V) fetal calf serum, 100 U/ml penicillin (Gibco, Paisley, UK) and 2 mM L-glutamine (Gibco, Paisley, UK). The culture medium was changed every two days. Cells were kept at 37° C. in a humidified 95% air/5% CO2 atmosphere.
The plasmids pG5TkpGL3, pRL-CMV, pGal4-hPPARα, pGal4-hPPARγ and pGal4-f have been described by Raspe et al. (Raspe, Madsen et al. 1999). The pGal4-mPPARα and pGal4-hPPARβ constructs were obtained by cloning PCR-amplified DNA fragments corresponding to the DEF domains of the mouse PPARα and human PPARβ nuclear receptors, respectively, into the pGal4-f vector.
HepG2 cells were seeded in 24-well culture dishes at 5×10^4 cells/well and transfected for 2 hours with the reporter plasmid pG5TkpGL3 (50 ng/well), the expression vectors pGal4-f, pGal4-mPPARα, pGal4-hPPARα, pGal4-hPPARγ, pGal4-hPPAβ (100 ng/well) and the transfection efficiency control vector pRL-CMV (1 ng/well) according to the previously described protocol (Raspe, Madsen et al. 1999), then incubated for 36 hours with the test compounds. At the end of the experiment, the cells were lysed (Gibco, Paisley, UK) and luciferase activity was determined with a Dual-Luciferase™ Reporter Assay System kit (Promega, Madison, Wis., USA) according to the supplier's instructions. The protein content of the cell extracts was then measured with the Bio-Rad Protein Assay (Bio-Rad, Munich, Germany) as directed by the supplier.
FIG. 3: HepG2 cells transfected with Gal4/PPARα plasmids were incubated with different concentrations of inventive compounds (5, 15, 50 and 100 μM) for 24 h and with different concentrations of the vehicle (PC). The results are expressed as the induction factor (luminescent signal relative to untreated cells) after the different treatments. […] The induction factors for compound Ex 4p were 35 at 100 μM, 44 at 50 μM, 36 at 15 μM and 24 at 5 μM. In contrast, when the cells were incubated with the vehicle (PC liposome), no significant induction was observed.

Assay [2] relates to ischemia induced by occlusion of the middle cerebral artery. Description: Cerebral ischemia-reperfusion model, prophylactic treatment, brain infarct volume. Format: in vivo, Wistar rats. The protocol: (§1) Wistar rats weighing 200 to 350 g were used for this experiment. Animals were treated by gavage with the inventive compounds (600 mg/kg/day) in suspension in the vehicle (0.5% carboxycellulose (CMC) and 0.1% Tween) or with the vehicle alone, for 14 days before ischemia induction by occlusion of the middle cerebral artery. Animals were anesthetized by intraperitoneal injection of 300 mg/kg chloral hydrate. A rectal probe was inserted and body temperature was maintained at 37° C.±0.5° C. Blood pressure was monitored throughout the experiment. Under a surgical microscope, the right carotid artery was exposed by a median incision in the neck. The pterygopalatine artery was ligated at its origin and an arteriotomy was fashioned in the external carotid artery so as to insert a nylon monofilament, which was gently advanced to the common carotid artery and then into the internal carotid artery so as to occlude the origin of the middle cerebral artery. The filament was withdrawn one hour later to allow reperfusion. Twenty-four hours after reperfusion, animals previously treated or not with the inventive compounds were euthanized by pentobarbital overdose. Brains were rapidly frozen and sliced. Sections were stained with cresyl violet. Unstained zones of the brain sections were considered to be damaged by the infarct. Areas (of the infarct and the two hemispheres) were measured and the volume of the infarct and the two hemispheres was calculated and the corrected infarct volume was determined by the following formula: (corrected infarct volume=infarct volume−(volume of right hemisphere−volume of left hemisphere)) to compensate for cerebral oedema.

The test system is the same in assay [3]. The experiment in a line: Cerebral ischemia-reperfusion model, curative or acute phase treatment, brain infarct volume. Format: in vivo, Wistar rats. As for the experimental part: as §1, with “Animals such as those described previously” for “Wistar rats weighing 200 to 350 g”, “experiment.” for “experiment. Animals were treated by gavage with the inventive compounds (600 mg/kg/day) in suspension in the vehicle (0.5% carboxycellulose (CMC) and 0.1% Tween) or with the vehicle alone, for 14 days before ischemia induction by occlusion of the middle cerebral artery.”, “Animals first subjected to ischemia-reperfusion were treated with the inventive compounds by the oral route (such as previously described in CMC+Tween vehicle) one or more times after reperfusion (600 mg/kg/day or 300 mg/kg/day bid). 24, 48 or 72” for “Twenty-four”, “the” for “the inventive”, “measured,” for “measured and”

Where [4] appears, read: prophylactic treatment, FIG. 4b.

As to “1,3-dilinoleyl-2-tetradecylthioacetylglycerol [Ex 4h]”, in the assay on LDL (compound at 10^-4 M), the “decrease in the maximum amount of conjugated dienes formed” value (shortened to “decrease in the maximum amount”) was 24% and the “rate of conjugated diene formation (LDL oxidation rate)” value (“rate of conjugated diene formation” below) is recorded as 2.5 nmol/min/mg of LDL. The “increase in the lag phase” value with LDL came to 43%.
Turning to `CCCCCCCCCCCCCCSCC(=O)OCC(O)CO` (stereo not drawn) [Ex 2a, 1-tetradecylthioacetylglycerol], the “effect on the LDL oxidation rate (in words)” value (“effect … (in words)” below) in the assay on LDL (FIG. 2b) is “did not significantly alter”. In the assay on LDL, the “increase in the lag phase” value stood at 67%. Further, the “induction factor (luminescent signal relative to untreated cells)” value in assay [1] (5 μM) is on record as 17 fold; in assay [1] (15 μM), 31 fold; in assay [1] (50 μM), 41 fold; in assay [1] (100 μM) it was 62 fold.
Turning to `CCCCCCCCCCCCCCSCC(=O)OCC(COC(=O)CSCCCCCCCCCCCCCC)OC(=O)CSCCCCCCCCCCCCCC` [Ex 4a, 1,2,3-tritetradecylthioacetylglycerol], the “decrease in the oxidation rate” value in the assay with LDL (compound at 10^-4 M, FIG. 2b) was 66%. Also, the “decrease in the maximum amount” value with LDL (compound at 10^-4 M) was determined as 60%. For the same compound, in the assay on LDL (compound at 10^-4 M), the “rate of conjugated diene formation” value is 1 nmol/min/mg of LDL. Further, the “lag phase for conjugated diene formation” value in the assay on LDL (compound at 10^-4 M) was 270 min. Also, in the assay on LDL, the “increase in the lag phase” value was 160%. Besides, the “induction factor (luminescent signal relative to untreated cells)” value was determined as 9 fold in assay [1] (5 μM), 18 fold in assay [1] (15 μM), 30 fold in assay [1] (50 μM) and 41 fold in assay [1] (100 μM). The “decrease in lesion size relative to control animals” value in assay [2] (oral, 300 mg/kg/day bid, 14 days before ischemia, FIG. 4a) worked out at 22%. Besides, the “corrected total infarct volume (lesion size)” value in assay [2] (oral, 300 mg/kg/day bid, 14 days before ischemia, controls 186 mm^3, FIG. 4a) stood at 145 mm^3. Further, the “decrease in lesions, cortical infarct (uncorrected infarct volume)” value is given as 22% in assay [2] (setting [4]); 25% in assay [3] (acute phase 24 h, FIG. 4d); 32% in assay [3] (acute phase 72 h, FIG. 4f). The “effect on striatal infarct (uncorrected infarct volume), in words” value was “no significant decrease in lesions” in assay [2] (setting [4]) and “no significant decrease in lesions” in assay [3] (acute phase 24 h, FIG. 4d). Moreover, the “lesions smaller than control animals” value was determined as 27% in assay [3] (600 mg/kg/day for 24 hours after ischemia, FIG. 4c) and 40% in assay [3] (600 mg/kg/day for 72 hours after ischemia, FIG. 4e). In assay [3] (600 mg/kg/day for 24 hours after ischemia, controls 180 mm^3, FIG. 4c), this compound registered an infarct volume of 132 mm^3. Further, the corrected infarct volume in assay [3] (600 mg/kg/day for 72 hours after ischemia, controls 180 mm^3, FIG. 4e) is 110 mm^3. Besides, in assay [3] (acute phase 72 h, FIG. 4f), the “decrease in lesions, striatal infarct (uncorrected infarct volume)” value is 23%.
`CCCCCCCCCCCCCCCC(=O)OCC(COC(=O)CCCCCCCCCCCCCCC)OC(=O)CSCCCCCCCCCCCCCC` [Ex 4g, 1,3-dipalmitoyl-2-tetradecylthioacetylglycerol]: in the assay on LDL (compound at 10^-4 M), the “decrease in the maximum amount” value was found to be 31%, the “rate of conjugated diene formation” value is recorded as 1.8 nmol/min/mg of LDL and the “lag phase for conjugated diene formation” value is 282 min. In addition, in the assay with LDL, the “increase in the lag phase” value was found to be 170%.
Consider `CCCCCCCCCCCCCCCC(=O)OC(COC(=O)CSCCCCCCCCCCCCCC)COC(=O)CSCCCCCCCCCCCCCC` [Ex 4o, 1,3-ditetradecylthioacetyl-2-palmitoylglycerol], for which, in the assay with LDL (FIG. 2b), the “effect … (in words)” value is on record as “did not significantly alter”. In addition, the “increase in the lag phase” value in the assay on LDL is 37%.
Regarding `CCCCCCCCCCCCCCSCC(=O)OC(COC(C)=O)COC(C)=O` [Ex 4p, 1,3-diacetyl-2-tetradecylthioacetylglycerol], the “induction factor (luminescent signal relative to untreated cells)” value in assay [1] (5 μM) worked out at 24 fold; in assay [1] (15 μM), 36 fold; in assay [1] (50 μM) it was 44 fold; in assay [1] (100 μM) it was 35 fold.
For the compound `CCCCCCCCCCCCCCSCC(=O)OC(COC(=O)CCCCCCC)COC(=O)CCCCCCC` [Ex 4q, 1,3-dioctanoyl-2-tetradecylthioacetylglycerol], in the assay on LDL (FIG. 2b), the “effect … (in words)” value is given as “did not significantly alter”. Moreover, the “increase in the lag phase” value with LDL is on record as 54%.
